# How the values were obtained:
# [1] = test system: cucumber anthracnose; experiment: Fungicidal activity in vivo, cucumber anthracnose; conditions: plants sprayed, inoculated after 24 hours
# Method: (§1) Determine the fungicidal activities of the compounds of the present invention against plant diseases, carried by following procedure:
# (§2) Determination of Fungicidal Activity In Vivo:
# (§3) Compounds were dissolved in acetone, and diluted to required concentration with water containing 0.1% of tween 80. Plants were sprayed by a sprayer. After 24 hours, plants were innoculated and then transferred into a dew chamber for infection. After the infection period normally one week), the plants were scored for disease control.
# [2] = test system: diamond backmoth (Plutella xylostella); experiment: Insecticidal activity, spray test, diamond backmoth; assay type: in vivo; conditions: 600 ppm, mortality after two to three days
# Method: (§4) Determination of insecticidal and acaricidal activity of selected compounds were carried out by following procedure:
# (§5) Compounds were dissolved in mixed solvent (acetone:methanol=1:1), and diluted to required concentration with water containing 0.1% of tween 80.
# (§6) The armyworm (Leucania separata), the second stage Juvenile of diamond backmoth (Plutella xylostella), lesser army worm (Spodoptera exiqua), green peach aphids (Myzus persicae) and mite (Tetranychus cinnabarinus) were used in biological test. The test was employed either spraying by airbrush. A test solution (0.5 ml) was sprayed at the pressure of 10 psi (0.7 kg/cm^2). Percent mortality was determined after two to three days.
# [3] = test system: lesser army worm (Spodoptera exiqua); experiment: Insecticidal activity, spray test, lesser armyworm; assay type: in vivo; conditions: mortality after two to three days
# Method: as §4, §5, §6
# [4] = test system: plant diseases; experiment: Fungicidal activity in vivo against plant diseases (overall); conditions: 400 ppm
# Method: as §1, §2, §3
Structure (SMILES),control of diamond backmoth [2] [%],control of lesser armyworm ([3]; 600 ppm) [%],other results
Cc1cc(C(=O)NCCNc2ncc(C#N)cc2Cl)ccc1NC(=O)c1cc(Br)nn1-c1ncccc1Cl [83 in Table 96],,,control of cucumber anthracnose ([1]; 400 ppm): 100%
Cc1cc(Cl)cc(C(=O)NCCNc2ccc(C(F)(F)F)cc2Cl)c1NC(=O)c1cc(Br)nn1-c1ncccc1Cl [Table 173-83],100,100,
Cc1cc(Cl)cc(C(=O)NCCNc2ncccc2Cl)c1NC(=O)c1cc(Br)nn1-c1ncccc1Cl [Table 179-83],100,100,
Cc1cc(Cl)cc(C(=O)NCCCNc2ncccc2Cl)c1NC(=O)c1cc(Br)nn1-c1ncccc1Cl [Table 179-199],100,100,
Cc1cc(Cl)cc(C(=O)N2CCN(c3ncccc3Cl)CC2)c1NC(=O)c1cc(Br)nn1-c1ncccc1Cl [Table 179-303],100,100,
Cc1cc(Cl)cc(C(=O)NC(C)CNc2ncccc2Cl)c1NC(=O)c1cc(Br)nn1-c1ncccc1Cl (centres unmarked) [Table 179-304],100,100,control of cucumber anthracnose ([1]; 50 ppm): 100%; control of cucumber anthracnose ([1]; 400 ppm): 100%; control of lesser armyworm ([3]; 1 ppm): 100%; control of lesser armyworm ([3]; 10 ppm): 100%
Cc1cc(Cl)cc(C(=O)NCCNc2ncc(C(F)(F)F)cc2Cl)c1NC(=O)c1cc(Br)nn1-c1ncccc1Cl [Table 181-83],100,100,control of cucumber anthracnose ([1]; 50 ppm): 100%; control of cucumber anthracnose ([1]; 400 ppm): 100%; control of lesser armyworm ([3]; 0.1 ppm): more than 60%; control of lesser armyworm ([3]; 1 ppm): 100%; control of lesser armyworm ([3]; 10 ppm): 100%
Cc1cc(Cl)cc(C(=O)NCCCNc2ncc(C(F)(F)F)cc2Cl)c1NC(=O)c1cc(Br)nn1-c1ncccc1Cl [Table 181-199],100,100,control of lesser armyworm ([3]; 1 ppm): 100%; control of lesser armyworm ([3]; 10 ppm): 100%
Cc1cc(Cl)cc(C(=O)N2CCN(c3ncc(C(F)(F)F)cc3Cl)CC2)c1NC(=O)c1cc(Br)nn1-c1ncccc1Cl [Table 181-303],100,100,
Cc1cc(Cl)cc(C(=O)NC(C)CNc2ncc(C(F)(F)F)cc2Cl)c1NC(=O)c1cc(Br)nn1-c1ncccc1Cl (centres unmarked) [Table 181-304],100,100,
Cc1cc(Cl)cc(C(=O)NCCNc2ncc(C#N)cc2Cl)c1NC(=O)c1cc(Br)nn1-c1ncccc1Cl [Table 182-83],100,100,
Cc1cc(Cl)cc(C(=O)NCCCNc2ncc(C#N)cc2Cl)c1NC(=O)c1cc(Br)nn1-c1ncccc1Cl [Table 182-199],100,100,
Cc1cc(Cl)cc(C(=O)NCCNc2ncc(Cl)cc2Cl)c1NC(=O)c1cc(Br)nn1-c1ncccc1Cl [Table 211-83],100,100,control of cucumber anthracnose ([1]; 400 ppm): 100%
Cc1cc(Cl)cc(C(=O)NCCCNc2ncc(Cl)cc2Cl)c1NC(=O)c1cc(Br)nn1-c1ncccc1Cl [Table 211-199],100,100,control of lesser armyworm ([3]; 10 ppm): 100%
CNC(=O)c1cc(Cl)cc(C)c1NC(=O)c1cc(Br)nn1-c1ncccc1Cl [chlorantraniliprole],,,fungicidal activity [4]: no fungicidal activity

# Reference: patent US8455398B2, “Amide compounds, preparation methods and uses thereof” (Sinochem Corporation, priority 2008, dated 2013)
